Experimental data taken from PubChem BioAssay AID1963842 (Molecular Pharmacology Branch, DTP, NCI, 2024).
Where “and” joins values, the source holds several entries; their conditions need not be identical. Equal values may be shown once.

Tested on: 677734-321-R-J1-PDC complex spheroid viability
Experiment: Anticancer human tumor 677734-321-R-J1-PDC patient-derived soft tissue sarcoma cell line growth inhibition [POLQ]
Settings: for viability, T/C: stronger effect = lower value
Description: Multicellular complex tumor spheroid response to Polymerase (POL) inhibitors (novobiocin, ART-558, RP6685) in combination with a variety of drugs and investigational agents in selected tumor cell lines
The POL inhibitors (novobiocin, ART-558, and RP6685) were evaluated both individually and in combination with standard of care and investigational anticancer small molecules within a complex spheroid model of solid tumors. . Complex spheroids include a stromal component modeled by human endothelial cells (HUVEC) and fibroblasts modeled by human mesenchymal stem cells (MSCs). The concentration ranges selected for each drug and investigational agent were based upon clinically achievable concentrations if the clinical Cmax of the agent was known.
Compounds. The drugs and investigational agents: novobiocin (NSC847541), ART-558 (NSC835418), RP-6685 (NSC848927), peposertib (NSC802822), ceralasertib (NSC780249), elimusertib (NSC800525), camonsertib (NSC841442), AZD-1390 (NSC803789), olaparib (NSC753686), talazoparib (NSC767125), rucaparib (NSC756644), sotorasib (NSC818433), MRTX-1133 (NSC836407), SN-38 (NSC673596), topotecan (NSC609699), epotoside (NSC141540), doxorubicin (NSC123127), gemcitabine (NSC613327), 5-fluorouracil (NSC19893), paclitaxel (NSC125973), vemurafenib (NSC761431), MSA-2 (NSC828583), SN-011 (NSC837082), adavosertib (NSC754352), prexasertib (NSC758257), carboplatin (NSC241240) and oxaliplatin (NSC266046), were obtained from the National Cancer Institute (NCI) Developmental Therapeutics Program Chemical Repository (21). The FDA-approved anticancer drug set is available from the Developmental Therapeutics Program at https://dtp.cancer.gov/organization/dscb/obtaining/. […] The stock solutions were prepared in dimethyl sulfoxide (DMSO, Sigma-Aldrich, St. Louis, MO, cat. D2650), except for the platinum compounds which were prepared in saline (Quality Biological, Gaithersburg, MD, cat. 114-055-101), at 800-fold the tested concentration and stored at -70 degrees C prior to their use. All drugs and investigational agents were tested over a range starting from a high concentration at or near the clinical Cmax and decreasing in half-log increments. If the clinical Cmax for an agent had not been determined, the highest concentration tested was 10 microM, except for SN-38, which was tested at a high concentration of 1 microM.
Cell Culture. All cells were maintained in an incubator at 37 degrees C and 5% CO2 with 95% humidity. The PDC lines were cultured according to standard operating procedures established by the NCI PDMR (https://pdmr.cancer.gov). Table 3 of the manuscript, lists the cell lines along with the number of the three cell types plated to form the mct-spheroids and media for tumor cell growth. After thawing, all PDC lines, except 997537-175-T-J1-PDC and 415267-285-R-J2-PDC, were cultured in Matrigel-coated flasks prepared with a working solution of 1X Ham's F-12 nutrient mix, without supplementation (Thermo Fisher Scientific, cat. 11765054), 100 U/mL penicillin-streptomycin (Thermo Fisher Scientific, cat. 15140122), and 2.5% Matrigel (Corning Inc., Corning, NY, cat. 354248) for the first three passages. The two PDC lines 997537-175-T-J1-PDC and 415267-285-R-J2-PDC were cultured on uncoated flasks. The 857933-349-R-J2-PDC line was cultured in 6C/Colon 1B media containing advanced DMEM/F-12 (Thermo Fisher Scientific, cat. 12634028), 10 mM HEPES (Thermo Fisher Scientific, cat. 15630080), 1X GlutaMAX supplement (Thermo Fisher Scientific, cat. 35050061), 0.1 mg/mL primocin (InvivoGen, San Diego, CA, cat. ant-pm-2), 10% defined fetal bovine serum, heat inactivated (HyClone Laboratories Inc., Logan, UT, cat. SH30070.03HI), 50% L-WRN conditioned media (ATCC, cat. CRL-3276), 1.25 mM N-Acetyl-L-cysteine (Sigma-Aldrich, cat. A9165), 10 mM nicotinamide (Sigma-Aldrich, cat. N0636), 1X B-27 supplement (Thermo Fisher Scientific, cat. 17504044), 1X N-2 supplement (Thermo Fisher Scientific, cat. […]

[1] = compound alone, run of 11/27/2023
[2] = compound alone, run of 12/05/2023
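Also: spheroids exposed to compounds for one week.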
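For viability, T/C in this document: 100% = vehicle DMSO treated spheroids.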

Compound | viability, T/C (compound 0.0316 µM) | viability, T/C (compound 0.1 µM) | viability, T/C (compound 0.316 µM) | viability, T/C (compound 1 µM) | viability, T/C (compound 3.16 µM) | viability, T/C (compound 10 µM) | IC50 (curve of compound) | IC50 [1] | viability, T/C (compound 0.00316 µM) | viability, T/C (compound 0.01 µM) | IC50 [2] | viability, T/C (compound 0.000316 µM) | viability, T/C (compound 0.001 µM)
CNCc1ccc(-c2[nH]c3cc(F)cc4c3c2CCNC4=O)cc1 | 105% and 107% and 106% | 101% and 75.4% and 97.1% | 102% and 106% and 99.2% | 101% and 99.7% and 105% | 108% and 101% and 99% | 106% and 82.2% and 88.9% | > 10 µM |  |  |  |  |  | 
COC1C(OC(N)=O)C(O)C(Oc2ccc3c(O)c(NC(=O)c4ccc(O)c(CC=C(C)C)c4)c(=O)oc3c2C)OC1(C)C (centres undefined) | 103% [middle of 13 runs] | 104% [middle of 13 runs] | 110% [middle of 13 runs] | 104% [middle of 13 runs] | 106% [middle of 13 runs] | 106% [middle of 13 runs] |  | > 10 µM |  |  |  |  | 
COc1cc(C2c3cc4c(cc3C(OC3OC5COC(C)OC5C(O)C3O)C3COC(=O)C23)OCO4)cc(OC)c1O (centres undefined) | 104% and 100% and 109% | 89.1% and 82.7% and 89.3% | 62.1% and 53.5% and 58% | 57.5% and 29.2% and 48.4% | 31.5% and 19.5% and 25.9% | 8.04% and 9.9% and 10.2% | 0.97 µM and 0.385 µM and 0.706 µM |  |  |  |  |  | 
COc1cc2cc(C(=O)CCC(=O)O)sc2cc1OC | 100% and 108% and 101% | 94.4% and 93.7% and 102% | 82% and 105% and 114% | 95.8% and 98.6% and 106% | 97.5% and 107% and 106% | 105% and 99.9% and 113% | > 10 µM |  |  |  |  |  | 
COc1ccc([C@@H](O)c2cc(-c3ncnc4cc(N5CCOCC5)ccc34)c(F)cc2Cl)nn1 | 107% and 98.4% and 105% | 105% and 99.2% and 102% | 100% and 104% (2×) | 96.4% and 81.6% and 94.7% | 73.8% and 64.6% and 87.4% | 49.8% and 45.3% and 51% | 9.83 µM and 7.58 µM and > 10 µM |  |  |  |  |  | 
COc1cccc(OCCCN)c1-c1cc(Nc2cnc(C#N)cn2)n[nH]1 | 13.8% and 5.42% and 7.19% | 8.96% and 5.9% and 8.69% | 11% and 6.62% and 7.27% | 10.3% and 5.14% and 6.13% |  |  | 0.00761 µM and 0.00404 µM and 0.00615 µM |  | 96.4% and 60.4% and 103% | 35.5% and 11.5% and 11.2% |  |  | 
COc1cccc2c1C(=O)c1c(O)c3c(c(O)c1C2=O)CC(O)(C(=O)CO)CC3OC1CC(N)C(O)C(C)O1 (centres undefined) | 86.2% and 48.1% and 72.7% | 48.5% and 29% and 48.7% | 8% and 4.1% and 6.65% | 0.91% and 1.65% | 2.59% and 1.37% and 2.03% | 3.4% and 0.66% and 2.59% | 0.0956 µM and < 0.0316 µM and 0.0938 µM |  |  |  |  |  | 
Cc1cccc(N(C)C(=O)C2C(O)CCN2c2nc(C)cc(C(F)(F)F)c2C#N)c1 (centres undefined) | 101% [middle of 13 runs] | 103% [middle of 13 runs] | 107% [middle of 13 runs] | 99.2% [middle of 13 runs] | 102% [middle of 13 runs] |  |  | > 10 µM |  |  | > 10 µM |  | 
Cn1ncnc1[C@H]1c2n[nH]c(=O)c3cc(F)cc(c23)N[C@@H]1c1ccc(F)cc1 | 98.8% and 94.5% and 106% | 93% and 75.8% and 93.5% |  |  |  |  | > 0.1 µM |  | 97.4% and 107% and 117% | 105% and 94.7% and 104% |  | 101% and 87.2% and 106% | 104% and 93.2% and 95.4%
Nc1ccc(C#CCN(C(=O)Cc2ncc(C(F)(F)F)cc2C(F)(F)F)c2ccc(F)cc2)nn1 |  | 104% [middle of 13 runs] | 103% [middle of 13 runs] |  | 99.7% [middle of 13 runs] |  |  |  |  |  | > 10 µM |  | 
Nc1ccn(C2OC(CO)C(O)C2(F)F)c(=O)n1 (centres undefined) | 34.7% and 15.9% and 21.9% | 14.8% and 10.8% and 14.6% | 16.7% and 11.1% and 12.8% | 14.4% and 10% and 14.7% | 14.3% and 7.7% and 10.6% | 12.5% and 6.81% and 8.93% | < 0.0316 µM |  |  |  |  |  | 
O=C(Nc1ccc(O)c(NS(=O)(=O)c2ccc(F)cc2)c1)c1ccc(-c2ccccc2)cc1 | 96.9% and 104% and 110% | 100% and 107% and 109% | 108% and 112% and 104% | 94.2% and 98.8% and 106% | 68.3% and 79.4% and 89.6% | 21.9% and 20.6% and 32.8% | 4.96 µM and 5.6 µM and 7.07 µM |  |  |  |  |  | 
O=C(c1cc(Cc2n[nH]c(=O)c3ccccc23)ccc1F)N1CCN(C(=O)C2CC2)CC1 | 102% and 15.6% and 95.7% | 100% and 20.2% and 94.9% | 104% and 16.8% and 106% | 105% and 20.7% and 100% | 97.5% and 14.8% and 101% | 77.8% and 12.2% and 58.9% |  |  |  |  |  |  | 
O=c1[nH]cc(F)c(=O)[nH]1 | 116% and 111% and 113% | 101% and 86.4% and 96.7% | 108% and 104% (2×) | 85.4% and 84.6% and 91.5% | 54.7% and 62.5% and 51.4% | 44.1% and 59% and 42.7% | 5.22 µM and > 10 µM and 3.84 µM |  |  |  |  |  | 
